# Data published in patent US9701958B2, “Method for selecting polynucleotides encoding antigen-specific immunoglobulin subunits” (priority 2012, dated 2017).
# Read-outs that look alike come from different tables or passages of the source.
# What was measured:
# wild-type vaccinia virus = type: cell-based
# VHE H5 HX-A56R NEO = type: cell-based, vaccinia virus
structure (smiles),measurement,setting,value
CN[C@@H]1[C@@H](O)[C@@H](O[C@@H]2[C@@H](O)[C@H](O[C@H]3O[C@H]([C@@H](C)O)[C@@H](O)[C@H](O)[C@H]3N)[C@@H](N)C[C@H]2N)OC[C@]1(C)O [G418],inhibition of amplification of wild-type vaccinia virus,"wild-type vaccinia virus; 0.125 to 2 mg/ml of G418, in words",significantly inhibited
same,% Inhibition,wild-type vaccinia virus; G418 0.125 mg/ml,60.8%
same,Titer,wild-type vaccinia virus; G418 0.125 mg/ml,1.58E+07
same,% Inhibition,wild-type vaccinia virus; G418 0.25 mg/ml,79.4%
same,Titer,wild-type vaccinia virus; G418 0.25 mg/ml,8.26E+06
same,% Inhibition,wild-type vaccinia virus; G418 0.5 mg/ml,93.7%
same,Titer,wild-type vaccinia virus; G418 0.5 mg/ml,2.54E+06
same,% Inhibition,wild-type vaccinia virus; G418 1 mg/ml,96.6%
same,Titer,wild-type vaccinia virus; G418 1 mg/ml,1.36E+06
same,% Inhibition,wild-type vaccinia virus; G418 2 mg/ml,99.6%
same,Titer,wild-type vaccinia virus; G418 2 mg/ml,1.59E+05
same,inhibition of amplification of vaccinia virus expressing heavy chain linked to a neomycin resistance marker,VHE H5 HX-A56R NEO,no inhibition effect
same,% Inhibition,VHE H5 HX-A56R NEO; G418 0.125 mg/ml,−26.7%
same,Titer,VHE H5 HX-A56R NEO; G418 0.125 mg/ml,2.88E+07
same,% Inhibition,VHE H5 HX-A56R NEO; G418 0.25 mg/ml,−36.7%
same,Titer,VHE H5 HX-A56R NEO; G418 0.25 mg/ml,3.11E+07
same,% Inhibition,VHE H5 HX-A56R NEO; G418 0.5 mg/ml,−50.0%
same,Titer,VHE H5 HX-A56R NEO; G418 0.5 mg/ml,3.41E+07
same,% Inhibition,VHE H5 HX-A56R NEO; G418 1 mg/ml,−40.0%
same,Titer,VHE H5 HX-A56R NEO; G418 1 mg/ml,3.18E+07
same,% Inhibition,VHE H5 HX-A56R NEO; G418 2 mg/ml,−33.3%
same,Titer,VHE H5 HX-A56R NEO; G418 2 mg/ml,3.03E+07
